Legend:
K562 (BCR-ABL+) cells = assay: CCK-8 proliferation inhibition, K562 cells; type: cell-based, human; details: Homo sapiens, K562, 48 h, CCK-8, 48 hours of drug treatment; read-out: Proliferative inhibitory activity (IC50, nM) K562 (BCR-ABL+);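 also: Ten-point threefold dilution series starting at 10 µM, absorbance at 450 nm after 2 h with CCK-8, DMSO as negative control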
U937 (BCR-ABL-) cells = assay: CCK-8 proliferation inhibition, U937 cells; type: cell-based, human; details: Homo sapiens, U-937; CCK-8, 48 hours of drug treatment, highest concentration 10 μM; read-out: Proliferative inhibitory activity (IC50, nM) U937 (BCR-ABL-);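 also: Ten-point threefold dilution series, absorbance at 450 nm after 2 h with CCK-8 reagent, DMSO as negative control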
[1] = test system: BCR-ABL-G250E/V299L/F317L/F317V; assay: Western blot degradation of BCR-ABL drug resistance mutants in U937 cells; type: cell-based, human; details: U937 cells stably expressing mutants, 24 hours, 10 nM-10 μM
Procedure: (1) Establishment of stable BCR-ABL mutant: the target fragment of BCR-ABL was cloned into retroviral vector pmigrl, and then PMIGR1-BCR-ABL-G250E/E255K/V299L/F317L/F317V/T315I/T315A and other mutant forms were obtained by using Stratagene-QuikChange® Site-Directed Mutagenesis Kit. Finally, the cell lines stably expressing BCR-ABL wild type and mutant were established on U937 cells by retrovirus infection system.
(1) Cell seed: Established cells are added to the 24 well plates, with a cell density of 3×10^5/ml and a total volume of 1.5 ml; Four concentration gradients, 10 nm, 100 nm, 1 μM, and 10 μM, are respectively set for PROTAD series compounds. […] After 24 hours of drug treatment, the cells were collected in 1.5 ml ep tube, centrifuged at 3000 rpm for 3 minutes, and then added 30 μL PBS and 30 μL 2×SDS to cell precipitated, lysate Heat at 100° C. for 5 minutes, then placed on ice for 5 minutes, centrifuged at 10000 rpm for 5 minutes, and take the supernatant as the total protein extracted. The effect of SIAS151178 on the mutational BCR-ABL protein was detected by Western blotting.

[2] = test system: K562 cell transplantation tumor; assay: BCR-ABL+ K562 cell transplanted tumor model in mice; type: in vivo
Text: (1) Establishment of K562 Luc cells: the target fragment of luciferase was cloned into lentivirus vector Plenti-IRES-ZSGREEN, and a K562-Luc cell line stably expressing luciferase was established on K562 cells by using lentivirus infection system.
(§1) (2) BCR-ABL+K562 cell transplanted mouse model: 5*106 k562 Luc cells were inoculated into the subcutaneous of immunodeficient NOD-SCID mice. After 2 weeks, the tumor volume of mice was nearly 200 mm^3. The mice were randomly divided into 5 groups. […] At the same time, the mice were imaged in vivo to observe the tumor-bearing condition. Then stop the administration and observe the recurrence of the tumor.

[3] = Body weight and toxicity in the K562 transplanted mouse model; type: in vivo; details: NOD-SCID mice, during the experiment period
Text: as §1

BCR-ABL signal pathway = BCR-ABL signal pathway activity in vivo
Text: (§2) We further study whether PROTAD compound of the disclosure can induce BCR-ABL protein degradation in vivo. We still took the compound SIAIS151178 of Dasa-Lin-VHL system as the representative one.

[4] = test system: Src protein kinase, kit, PDGFR; assay: Degradation of other tyrosine kinase receptors
c-ABL protein [5] = target: T1, c-ABL protein (Homo sapiens, UniProt P00519); assay: Degradation of c-ABL protein in vivo; design: from tissue; host or cells: in vivo
T1 sequence (P00519 whole entry): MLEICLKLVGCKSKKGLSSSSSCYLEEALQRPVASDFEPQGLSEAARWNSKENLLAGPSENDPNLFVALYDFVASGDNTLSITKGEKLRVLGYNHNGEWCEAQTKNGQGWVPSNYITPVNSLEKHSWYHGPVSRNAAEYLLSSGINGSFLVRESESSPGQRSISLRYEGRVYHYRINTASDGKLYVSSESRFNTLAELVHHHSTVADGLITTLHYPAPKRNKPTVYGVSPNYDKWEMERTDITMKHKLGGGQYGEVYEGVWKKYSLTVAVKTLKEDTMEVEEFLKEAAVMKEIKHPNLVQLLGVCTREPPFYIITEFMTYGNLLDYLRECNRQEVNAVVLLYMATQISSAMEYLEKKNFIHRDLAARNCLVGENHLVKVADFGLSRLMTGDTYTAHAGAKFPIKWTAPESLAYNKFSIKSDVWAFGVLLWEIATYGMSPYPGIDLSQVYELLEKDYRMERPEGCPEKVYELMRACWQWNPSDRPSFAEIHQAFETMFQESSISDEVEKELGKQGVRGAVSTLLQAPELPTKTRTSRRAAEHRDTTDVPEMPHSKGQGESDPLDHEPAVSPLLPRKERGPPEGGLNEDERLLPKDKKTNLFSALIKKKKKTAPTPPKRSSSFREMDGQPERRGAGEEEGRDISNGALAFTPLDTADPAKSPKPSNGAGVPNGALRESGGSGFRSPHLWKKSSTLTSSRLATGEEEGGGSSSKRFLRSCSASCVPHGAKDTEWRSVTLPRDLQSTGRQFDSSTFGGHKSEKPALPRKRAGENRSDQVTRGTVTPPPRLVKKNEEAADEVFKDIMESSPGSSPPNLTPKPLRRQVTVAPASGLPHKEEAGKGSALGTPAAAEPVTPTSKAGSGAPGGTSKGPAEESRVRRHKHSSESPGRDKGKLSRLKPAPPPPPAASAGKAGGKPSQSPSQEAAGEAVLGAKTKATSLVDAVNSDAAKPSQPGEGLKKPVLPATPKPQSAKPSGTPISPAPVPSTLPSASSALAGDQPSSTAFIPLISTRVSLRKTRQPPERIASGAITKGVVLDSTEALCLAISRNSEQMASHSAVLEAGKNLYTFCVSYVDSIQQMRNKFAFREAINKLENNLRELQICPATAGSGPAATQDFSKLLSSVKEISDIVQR
Text: as §2

HEK293 (BCR-ABL-) cells = assay: CCK-8 proliferation inhibition, HEK293 cells; details: Homo sapiens, HEK293, 48 h, read-out: Proliferative inhibitory activity (IC50, nM) HEK293 (BCR-ABL-);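 also: Ten-point threefold dilution series starting at 10 µM, CCK-8 absorbance at 450 nm read after 2 h reagent incubation, DMSO-treated cells as negative control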
c-ABL protein [6] = target: T1, c-ABL protein; assay: Western blot degradation of c-ABL in K562 cells; type: cell-based; design: Western blot was used to detect the expression of BCR-ABL and c-ABL protein in K562 cells; endogenous in cells; host or cells: K562; details: 16 hours, 1 nM-10 μM
Outline: (§3)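 Lysates were normalized by Bradford and run on SDS-PAGE with nitrocellulose transfer. DC50 was derived from band intensities by non-linear regression.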

BCR-ABL protein [7] = target: T2, BCR-ABL protein (Homo sapiens, UniProt P00519); assay: Degradation of BCR-ABL protein in vivo; design: BCR (fusion partner, P11274); from tissue; host or cells: in vivo; the other entry of the earlier key: BCR (P11274, Breakpoint cluster region protein)
T2 sequence (P00519 with tags, fused parts or gaps): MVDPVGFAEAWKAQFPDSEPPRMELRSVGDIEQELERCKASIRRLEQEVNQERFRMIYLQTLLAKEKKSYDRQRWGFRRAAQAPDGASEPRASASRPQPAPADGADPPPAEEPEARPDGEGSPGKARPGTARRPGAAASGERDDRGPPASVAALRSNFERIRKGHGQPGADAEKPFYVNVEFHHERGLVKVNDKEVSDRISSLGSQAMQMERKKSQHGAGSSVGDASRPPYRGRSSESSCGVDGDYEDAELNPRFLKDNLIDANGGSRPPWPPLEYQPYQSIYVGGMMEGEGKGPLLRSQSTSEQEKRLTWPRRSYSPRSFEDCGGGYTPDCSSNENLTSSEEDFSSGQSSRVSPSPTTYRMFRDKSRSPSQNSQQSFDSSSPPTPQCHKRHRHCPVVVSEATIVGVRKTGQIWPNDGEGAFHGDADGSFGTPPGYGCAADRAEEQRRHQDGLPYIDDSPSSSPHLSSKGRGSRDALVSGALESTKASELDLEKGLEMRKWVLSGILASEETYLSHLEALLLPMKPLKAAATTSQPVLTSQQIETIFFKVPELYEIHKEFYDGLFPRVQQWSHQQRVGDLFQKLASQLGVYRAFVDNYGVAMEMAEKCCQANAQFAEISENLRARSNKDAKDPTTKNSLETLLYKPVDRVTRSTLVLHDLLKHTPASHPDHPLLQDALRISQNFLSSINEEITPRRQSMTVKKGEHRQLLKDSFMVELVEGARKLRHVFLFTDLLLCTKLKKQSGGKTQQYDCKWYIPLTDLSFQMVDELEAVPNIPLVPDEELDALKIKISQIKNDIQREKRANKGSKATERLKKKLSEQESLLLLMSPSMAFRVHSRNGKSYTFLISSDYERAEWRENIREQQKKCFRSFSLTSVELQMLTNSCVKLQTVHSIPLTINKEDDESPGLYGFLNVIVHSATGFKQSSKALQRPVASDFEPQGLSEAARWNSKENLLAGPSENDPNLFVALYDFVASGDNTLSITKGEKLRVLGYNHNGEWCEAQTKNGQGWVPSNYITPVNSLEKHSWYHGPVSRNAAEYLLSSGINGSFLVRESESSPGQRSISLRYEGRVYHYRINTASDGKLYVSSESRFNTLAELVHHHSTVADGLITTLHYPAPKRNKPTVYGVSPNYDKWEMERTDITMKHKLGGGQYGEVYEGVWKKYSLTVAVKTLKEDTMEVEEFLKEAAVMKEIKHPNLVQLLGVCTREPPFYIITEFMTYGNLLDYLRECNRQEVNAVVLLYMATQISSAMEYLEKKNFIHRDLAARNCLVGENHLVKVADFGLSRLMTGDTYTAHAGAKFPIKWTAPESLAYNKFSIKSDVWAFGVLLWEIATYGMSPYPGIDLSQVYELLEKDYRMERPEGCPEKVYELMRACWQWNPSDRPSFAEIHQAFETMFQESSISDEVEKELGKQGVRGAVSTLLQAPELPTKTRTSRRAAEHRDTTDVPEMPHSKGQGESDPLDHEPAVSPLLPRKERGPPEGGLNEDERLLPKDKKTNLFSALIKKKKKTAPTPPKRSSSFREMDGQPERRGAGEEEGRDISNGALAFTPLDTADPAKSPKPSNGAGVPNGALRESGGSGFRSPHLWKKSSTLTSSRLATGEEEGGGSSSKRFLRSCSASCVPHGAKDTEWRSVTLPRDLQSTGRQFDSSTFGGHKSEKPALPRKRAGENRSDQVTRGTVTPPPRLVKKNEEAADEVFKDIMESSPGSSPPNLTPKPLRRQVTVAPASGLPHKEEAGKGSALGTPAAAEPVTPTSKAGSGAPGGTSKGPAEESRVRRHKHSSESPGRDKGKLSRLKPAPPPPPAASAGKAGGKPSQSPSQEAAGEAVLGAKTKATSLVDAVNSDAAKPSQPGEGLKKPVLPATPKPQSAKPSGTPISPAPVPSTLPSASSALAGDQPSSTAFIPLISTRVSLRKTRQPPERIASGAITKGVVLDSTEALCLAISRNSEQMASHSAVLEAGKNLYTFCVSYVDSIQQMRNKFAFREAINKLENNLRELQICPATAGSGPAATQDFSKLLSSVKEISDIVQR
Text: as §2

BCR-ABL protein [8] = target: T2, BCR-ABL protein; assay: Western blot degradation of BCR-ABL in K562 cells; type: cell-based; design: Western blot was used to detect the expression of BCR-ABL and c-ABL protein in K562 cells; BCR (fusion partner, P11274); endogenous in cells; host or cells: K562; the other entry of the earlier key: BCR (P11274, Breakpoint cluster region protein); details: 16 hours, 1 nM-10 μM
Outline: as §3

In the case of `Cc1nc(Nc2ncc(C(=O)Nc3c(C)cccc3Cl)s2)cc(N2CCN(C(=O)CCCCCCC(=O)N[C@H](C(=O)N3C[C@H](O)C[C@H]3C(=O)NCc3ccc(-c4scnc4C)cc3)C(C)(C)C)CC2)n1` [SIAIS151178, N-(2-chloro-6-methylphenyl)-2-((6-(4-(8-(((S)-1-((2S,4R)-4-hydroxy-2-((4-(4-methylthiazol-5-yl)benzyl)carbamoyl)pyrrolidin-1-yl)-3,3-dimethyl-1-oxobutan-2-yl)amino)-8-oxooctanoyl)piperazin-1-yl)-2-methylpyrimidin-4-yl)amino)thiazole-5-carboxamide], the IC50 (K562 (BCR-ABL+) cells) is reported as 41.3 nM, the IC50 (U937 (BCR-ABL-) cells) is reported as greater than 10000 nM and the “degradation of BCR-ABL mutants related to clinical drug resistance” value [1] is reported as “can significantly degrade the mutant forms of BCR-ABL-G250E/V299L/F317L/F317V in a dose-dependent manner”. The tumor decrease ([2]; NOD-SCID mice, 15 mg/kg) was “can cause tumor decrease”, the “growth of K562 cell transplantation tumor” value ([2]; NOD-SCID mice, 5, 15, 45 mg/kg, 2 weeks) was “can inhibit the growth of K562 cell transplantation tumor in a dose-dependent manner” and the bodyweight of mice [3] was “no significant effect on the bodyweight of mice”. For the same compound, the “toxic and side effects” value [3] was “no obvious toxic and side effects were found”, the “BCR-ABL signal pathway activity in vivo” value (BCR-ABL signal pathway) was “significantly inhibit the BCR-ABL signal pathway activity” and the “degradation of other tyrosine kinase receptors” value [4] was “can also degrade other tyrosine kinase receptors, such as Src protein kinase, kit, PDGFR”. The “degradation of c-ABL protein in vivo” value (c-ABL protein [5]) was “can also degrade BCR-ABL and c-ABL protein in a dose-dependent manner in vivo”, the IC50 (HEK293 (BCR-ABL-) cells) was greater than 10000 nM and the DC50 (c-ABL protein [6]) was 10 to 100 nM. The “degradation of BCR-ABL protein in vivo” value (BCR-ABL protein [7]) was “can also degrade BCR-ABL and c-ABL protein in a dose-dependent manner in vivo” and the DC50 (BCR-ABL protein [8]) was 1 to 10 nM.

Source: US11639343B2, “Compounds targeting and degrading BCR-ABL protein and its antitumor application” (ShanghaiTech University, priority 2019, dated 2023)
